From paper PMC6745845, “In Vitro and in Vivo antitumor activity and the mechanism of siphonodictyal B in human colon cancer cells” (Cancer Medicine, 2019)
Like-named read-outs stand apart in the source and are kept apart here.

Assays:
HCT 116 cells [1] = assay: Western blot analysis; format: cell-based, human
Method: HCT 116 cells were seeded in six‐well plates at 2 × 10^5 cells/well and incubated for 24 houra. […] Cells were harvested and lysed using RIPA buffer. The proteins were separated on an SDS‐PAGE and transferred to PVDF membranes. Then, the membranes were blocked for 1 hour and incubated with primary antibodies overnight at 4°C. The membranes were washed and incubated with secondary antibodies for 1 hour at room temperature. Next, the resultant bands were detected using an Odyssey Infrared Imaging system (LI‐COR, NB, USA). Antibodies against phospho‐RB (Ser780), AKT, phospho‐AKT ([…]), PARP, phospho‐p38 MAPK (Thr180/Tyr182), p38 MAPK, and Bim were purchased from Cell Signaling Technology (Danvers, MA, USA). Antibodies against β‐actin and α‐tubulin were purchased from Sigma‐Aldrich.

CDK4/Cyclin D3 = target: T1, CDK4/Cyclin D3 (Homo sapiens, UniProt P11802); assay: off-chip mobility shift assay, CDK4/Cyclin D3; format: biochemical
T1 construct: purchased Carna Biosciences
T1 sequence (P11802 whole entry): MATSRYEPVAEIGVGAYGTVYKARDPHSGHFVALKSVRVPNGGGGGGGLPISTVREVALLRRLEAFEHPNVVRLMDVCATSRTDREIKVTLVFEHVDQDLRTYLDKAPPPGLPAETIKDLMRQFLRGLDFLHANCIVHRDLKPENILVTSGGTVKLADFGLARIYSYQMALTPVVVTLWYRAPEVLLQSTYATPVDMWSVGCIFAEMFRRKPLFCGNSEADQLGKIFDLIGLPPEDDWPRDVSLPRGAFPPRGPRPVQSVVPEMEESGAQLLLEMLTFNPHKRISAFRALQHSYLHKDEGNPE
T1 sequence (P30281 whole entry partner): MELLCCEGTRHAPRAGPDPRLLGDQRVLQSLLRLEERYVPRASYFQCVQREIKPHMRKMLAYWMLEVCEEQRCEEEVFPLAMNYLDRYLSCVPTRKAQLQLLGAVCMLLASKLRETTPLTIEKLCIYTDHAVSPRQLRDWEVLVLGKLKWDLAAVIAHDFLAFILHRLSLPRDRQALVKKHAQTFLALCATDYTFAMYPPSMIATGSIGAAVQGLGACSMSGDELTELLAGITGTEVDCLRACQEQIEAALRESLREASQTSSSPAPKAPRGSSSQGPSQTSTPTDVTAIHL
Method: (§1) Cellular kinase activities were evaluated using nonradioisotopic methods such as the off‐chip mobility shift assay or IMAP (Carna Biosciences, Kobe, Japan).11 A kinase inhibition profiling panel was produced on the basis of the kinase inhibition rates. In off‐chip mobility shift assay, compound solution was prepared in assay buffer (20 mmol/L HEPES, 0.01% Triton X‐100, 2 mmol/L DTT, pH 7.5) and incubated in a 384‐well plate at room temperature. The reaction was stopped by adding Termination Buffer (QuickScout Screening Assist MSA; Carna Biosciences, Kobe, Japan). The substrate peptide and the phosphorylated peptide in the reaction solution were separated and quantified by LabChip system (Perkin Elmer, MA, USA). In IMAP assay, compound solution was prepared in assay buffer (20 mmol/L HEPES, 0.01% Tween‐20, 2 mmol/L DTT, pH 7.4) and incubated in a 384‐well black plate at room temperature. IMAP binding reagent (IMAP Screening Express kit; Molecular Devices, CA, USA) was added and incubated for 30 minutes. The kinase reaction was evaluated at the fluorescence polarization.

CDK6/Cyclin D3 = target: T2, CDK6/Cyclin D3 (Homo sapiens, UniProt Q00534); assay: off-chip mobility shift assay, CDK6/Cyclin D3; format: biochemical
T2 construct: purchased Carna Biosciences
T2 sequence (Q00534 whole entry): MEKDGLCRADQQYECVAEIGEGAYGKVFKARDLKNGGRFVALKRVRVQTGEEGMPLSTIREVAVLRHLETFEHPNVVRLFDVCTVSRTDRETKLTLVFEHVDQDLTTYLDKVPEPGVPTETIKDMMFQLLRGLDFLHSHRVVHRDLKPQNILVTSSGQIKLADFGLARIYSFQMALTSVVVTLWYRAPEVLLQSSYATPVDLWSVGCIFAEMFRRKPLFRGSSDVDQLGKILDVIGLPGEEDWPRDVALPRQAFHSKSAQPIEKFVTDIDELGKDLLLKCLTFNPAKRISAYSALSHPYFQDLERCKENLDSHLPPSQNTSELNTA
T2 sequence (P30281 whole entry partner): as the sequence (P30281 whole entry partner) above
Method: as §1

CDK7/Cyclin H/MAT1 = target: T3, CDK7/Cyclin H/MAT1 (Homo sapiens, UniProt P50613); assay: off-chip mobility shift assay, CDK7/Cyclin H/MAT1; format: biochemical
T3 construct: purchased Carna Biosciences
T3 sequence (P50613 whole entry): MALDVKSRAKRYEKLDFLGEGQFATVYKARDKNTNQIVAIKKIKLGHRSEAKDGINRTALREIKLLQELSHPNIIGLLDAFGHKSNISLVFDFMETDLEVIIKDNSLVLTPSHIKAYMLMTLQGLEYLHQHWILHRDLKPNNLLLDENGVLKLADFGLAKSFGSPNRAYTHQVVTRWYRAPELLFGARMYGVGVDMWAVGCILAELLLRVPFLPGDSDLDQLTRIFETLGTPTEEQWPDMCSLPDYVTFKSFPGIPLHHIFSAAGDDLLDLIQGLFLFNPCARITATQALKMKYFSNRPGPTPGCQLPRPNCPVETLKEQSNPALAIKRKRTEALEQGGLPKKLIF
T3 sequence (P51946 whole entry partner): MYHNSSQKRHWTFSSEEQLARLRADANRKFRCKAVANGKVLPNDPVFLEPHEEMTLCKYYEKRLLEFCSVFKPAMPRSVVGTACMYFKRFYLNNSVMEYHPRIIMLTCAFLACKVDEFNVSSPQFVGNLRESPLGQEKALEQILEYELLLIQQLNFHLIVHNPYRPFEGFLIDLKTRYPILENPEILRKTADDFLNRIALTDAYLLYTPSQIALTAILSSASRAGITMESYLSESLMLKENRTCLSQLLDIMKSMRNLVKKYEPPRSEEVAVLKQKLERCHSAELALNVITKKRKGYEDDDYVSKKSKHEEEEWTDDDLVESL
T3 sequence (P51948 whole entry partner): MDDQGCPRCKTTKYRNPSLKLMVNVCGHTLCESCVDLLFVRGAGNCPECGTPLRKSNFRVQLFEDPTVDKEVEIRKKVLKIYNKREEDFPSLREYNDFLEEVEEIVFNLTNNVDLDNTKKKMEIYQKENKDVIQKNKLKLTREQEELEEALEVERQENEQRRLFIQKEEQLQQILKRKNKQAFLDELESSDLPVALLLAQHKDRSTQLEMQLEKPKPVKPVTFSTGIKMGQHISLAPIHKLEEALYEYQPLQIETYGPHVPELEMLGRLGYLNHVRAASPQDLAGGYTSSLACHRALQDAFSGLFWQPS
Method: as §1

PIM2 = target: T4, PIM2 (Homo sapiens, UniProt Q9P1W9); assay: off-chip mobility shift assay, PIM2; format: biochemical
T4 construct: purchased Carna Biosciences
T4 sequence (Q9P1W9 whole entry): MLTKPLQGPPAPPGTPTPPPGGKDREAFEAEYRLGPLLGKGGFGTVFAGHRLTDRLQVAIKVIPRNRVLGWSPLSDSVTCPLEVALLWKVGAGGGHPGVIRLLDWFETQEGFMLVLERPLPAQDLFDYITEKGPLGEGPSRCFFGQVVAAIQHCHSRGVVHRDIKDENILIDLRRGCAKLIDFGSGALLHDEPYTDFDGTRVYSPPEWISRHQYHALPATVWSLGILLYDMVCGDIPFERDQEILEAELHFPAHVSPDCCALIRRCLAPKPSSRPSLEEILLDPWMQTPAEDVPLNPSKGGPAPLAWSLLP
Method: as §1

313 protein kinases = assay: kinase panel assay (off-chip mobility shift or IMAP); format: biochemical; details: 313 kinases; 10 μmol/L printed for siphonodictyal B
Method: as §1

HCT 116 cells [2] = assay: ROS detection by DCFDA staining; format: cell-based, human; details: 2 h
Method: HCT 116 cells were treated with each drug for 2 hours and stained using a DCFDA/H2DCFDA—Cellular Reactive Oxygen Species Detection Assay Kit (Abcam). The measurement was performed using FC‐500.

HCT 116 xenograft = assay: xenograft mouse model, tumor growth; format: in vivo, Balb/c nude mice; details: 20 mg/kg intraperitoneally every 3 days
Method: (§2) All animal experiments were performed according to the Regulations for Animal Experiments and Related Activities at Tohoku University. Six‐week‐old female Balb/c nude mice were purchased from Charles River Laboratories (Wilmington, MA, USA). HCT 116 cells (5 × 10^6) were implanted subcutaneously into the right flanks of nude mice. After tumor formation was confirmed, mice were assigned to treatment with 20 mg/kg siphonodictyal B or vehicle (four mice per group) administered intraperitoneally every 3 days. Siphonodictyal B was dissolved in saline with 2.5% CremophorEL® and 2.5% ethanol. Tumor volumes were calculated on the basis of tumor mass using the formula length × width × width/2 (mm^3). The body weights of mice were also measured every 3 days.

phospho-p38 = assay: immunohistochemistry of xenograft tumor tissue; format: in vivo, Balb/c nude mice; details: 20 mg/kg intraperitoneally every 3 days, after all treatments
Method: as §2
Tumor tissues were collected from mice, fixed in 10% formalin, and embedded in paraffin. Tumor sections on slides were dewaxed, rehydrated, and incubated with a specific antibody against phospho‐p38.

PIK3CA/PIK3R1 = details: cited from earlier work
HCT 116 cells [3] = assay: cell proliferation assay (Cell Counting Kit-8), HCT 116
Method: Cells were seeded in 96‐well plates at 4000 cells/well and incubated for 24 hours, then treated with each concentration of siphonodictyal B. In experiments with SB203580 or NAC, cells were further preincubated for 24 or 1 hour before application of siphonodictyal B, respectively. Cells were incubated with Cell Counting Kit‐8 (Dojindo Molecular Technologies, Kumamoto, Japan) for 1.5 hours. Then, the absorbance of each well was measured using SpectraMaxM2e (Molecular Devices, CA, USA). The ratios of surviving cells to control cells treated with 0.1% DMSO were calculated.

[4] = read-out: PI3K (p110α/p85α) inhibitory activity IC50
[5] = ref Kikuchi T et al. 2016;2016(34):5659-66, read-out: IC50 PIK3CA/PIK3R1

CS(=O)(=O)N1CCN(Cc2cc3nc(-c4cccc5[nH]ncc45)nc(N4CCOCC4)c3s2)CC1 [GDC0941, reference compound]
AKT phosphorylation (HCT 116 cells [1]; 2 μmol/L GDC0941, 48 h): inhibited

CC(=O)c1c(C)c2cnc(Nc3ccc(N4CCNCC4)cn3)nc2n(C2CCCC2)c1=O [palbociclib, Palbociclib, reference compound]
RB phosphorylation (HCT 116 cells [1]; 10 μmol/L palbociclib, 48 h): inhibited

CC1CC[C@H]2C(C)(C)CCC[C@]2(C)C1=Cc1cc(O)c(O)c(C=O)c1O (stereo partly shown) [Siphonodictyal B]
IC50 (CDK4/Cyclin D3): 32.9 µM | IC50 (CDK6/Cyclin D3): 69.1 µM | IC50 (CDK7/Cyclin H/MAT1): 13.7 µM | IC50 (PIM2): 6.99 µM | inhibition of CDK4, CDK6, CDK7 and PIM-2 in kinase panel (313 protein kinases): strongly inhibited | PARP cleavage (HCT 116 cells [1]; 1.0 μmol/L, 48 h): induced | p38 phosphorylation (HCT 116 cells [1]; 1.0 μmol/L, 48 h): clearly induced | AKT phosphorylation at Ser473 (HCT 116 cells [1]; 0.1, 0.5 or 1 μmol/L, 48 h): did not inhibit | RB phosphorylation at Ser780 (HCT 116 cells [1]; 0.1, 0.5 or 1 μmol/L, 48 h): did not inhibit | levels of Bim (HCT 116 cells [1]; 0.5 or 1.0 μmol/L, 48 h): increased | phosphorylated p38 on addition of NAC (HCT 116 cells [1]; with NAC, 24 h): reduced | p38 phosphorylation on addition of SB203580 (HCT 116 cells [1]; with SB203580, 48 h): reduced | ROS levels vs DMSO (HCT 116 cells [2]): higher | increased ROS production on addition of NAC (HCT 116 cells [2]; with NAC): completely canceled | tumor volume vs control group (HCT 116 xenograft): significantly smaller | tumor weight vs control group (HCT 116 xenograft): significantly smaller | phosphorylated p38 staining in tumor tissue vs control group (phospho-p38): strongly stained | IC50 (PIK3CA/PIK3R1; [4]): 2.6 µM | IC50 (PIK3CA/PIK3R1; [5]): 2.62 µM | cytotoxic effect (ratio of surviving cells) (HCT 116 cells [3]; HCT 116, 0.01-10 μmol/L, 24 h): more potent cytotoxic effects than liphagal | cytotoxic effect on addition of NAC (HCT 116 cells [3]; HCT 116, with NAC, 24 h): almost completely rescued | cytotoxic effect on addition of SB203580 (HCT 116 cells [3]; HCT 116, with SB203580, 48 h): partially canceled

CC1CCC2C(C)(C)CCCC2(C)c2c1oc1c(C=O)c(O)c(O)cc21 (stereo not shown) [Liphagal]
IC50 (CDK4/Cyclin D3): 19.9 µM | IC50 (CDK6/Cyclin D3): 6.78 µM | IC50 (CDK7/Cyclin H/MAT1): 1.27 µM | IC50 (PIM2): 5.31 µM | inhibition of CDK4, CDK6, CDK7 and PIM-2 in kinase panel (313 protein kinases): strongly inhibited | IC50 (PIK3CA/PIK3R1; [4]): 4.1 µM | IC50 (PIK3CA/PIK3R1; [5]): 4.12 µM
